The numbers were not newly measured in US20010001064A1, “Flow electroporation chamber and methods of use thereof” (priority 1998, published 2001), which cites them from elsewhere.

Bounds are passed on as bounds.

The target of data set [1] is T1, hemoglobin (Homo sapiens, UniProt P68871+P69905). Conditions: relative to DPG.
The target in data set [2] is T1, hemoglobin. Conditions: pH 7.4, 37 degrees C.

T1 sequence (P69905 2-142 limits assumed): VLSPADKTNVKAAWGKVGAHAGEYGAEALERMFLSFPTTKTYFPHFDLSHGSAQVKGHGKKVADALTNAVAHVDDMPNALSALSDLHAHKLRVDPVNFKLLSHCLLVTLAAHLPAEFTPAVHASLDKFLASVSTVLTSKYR
T1 sequence (P68871 2-147 limits assumed): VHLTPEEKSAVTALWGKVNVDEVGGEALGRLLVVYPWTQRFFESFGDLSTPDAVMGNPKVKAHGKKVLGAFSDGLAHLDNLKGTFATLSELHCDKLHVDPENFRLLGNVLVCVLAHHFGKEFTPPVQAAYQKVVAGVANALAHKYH

As to `O=P(O)(O)O[C@H]1[C@H](OP(=O)(O)O)[C@@H](OP(=O)(O)O)[C@H](OP(=O)(O)O)[C@@H](OP(=O)(O)O)[C@H]1OP(=O)(O)O` [IHP, inositol hexaphosphate], at hemoglobin [1], the “affinity to hemoglobin, higher than DPG” value is 1000 fold. In addition, the P50 of hemoglobin on hemoglobin [2] is listed as not above 96.4 mm Hg.
